Source: the supplement of paper PMC10307832

What was measured:
Experiment in all cases: relative viability (nuclei count vs DMSO), 5 days (fraction); higher = more cells survive
Lapatinib + Pictilisib = compound: CS(=O)(=O)CCNCc1ccc(-c2ccc3ncnc(Nc4ccc(OCc5cccc(F)c5)c(Cl)c4)c3c2)o1 [Lapatinib] + CS(=O)(=O)N1CCN(Cc2cc3nc(-c4cccc5[nH]ncc45)nc(N4CCOCC4)c3s2)CC1 [Pictilisib] (partner 1 µM)
Method in brief: (§1)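 Lung cancer cell lines were seeded in 1536-well plates and dosed by pin tool the next day, with either a single drug or a fixed anchor-drug dose combined with five library-drug doses (not always all listed) spaced in √10 steps. Five days later, one step fixed the cells and stained their nuclei (final 0.05% Triton X-100, 1% formaldehyde, 1 ug/ml Hoechst), and nuclei were counted on 4× images. Relative viability is the nuclei count in treated wells divided by the count in vehicle wells, and each value is the median of duplicate plates.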

Lapatinib + Tozasertib = compound: CS(=O)(=O)CCNCc1ccc(-c2ccc3ncnc(Nc4ccc(OCc5cccc(F)c5)c(Cl)c4)c3c2)o1 [Lapatinib] + Cc1cc(Nc2cc(N3CCN(C)CC3)nc(Sc3ccc(NC(=O)C4CC4)cc3)n2)n[nH]1 [Tozasertib] (partner 0.1 µM)
Method in brief: as §1

Wnt-C59 + Vorinostat = compound: CC1=NC=CC(=C1)C2=CC=C(C=C2)CC(=O)NC3=CC=C(C=C3)C4=CN=CC=C4 [Wnt-C59] + O=C(CCCCCCC(=O)Nc1ccccc1)NO [Vorinostat] (partner 1 µM)
Method in brief: as §1

Wnt-C59 + Lapatinib = compound: CC1=NC=CC(=C1)C2=CC=C(C=C2)CC(=O)NC3=CC=C(C=C3)C4=CN=CC=C4 [Wnt-C59] + CS(=O)(=O)CCNCc1ccc(-c2ccc3ncnc(Nc4ccc(OCc5cccc(F)c5)c(Cl)c4)c3c2)o1 [Lapatinib] (partner 2 µM)
Method in brief: as §1

Row | Cell Line | relative viability (Lapatinib + Pictilisib; first compound 0.02 µM) | relative viability (Lapatinib + Pictilisib; first compound 0.06325 µM) | relative viability (Lapatinib + Pictilisib; first compound 0.2 µM) | relative viability (Lapatinib + Pictilisib; first compound 0.6325 µM) | relative viability (Lapatinib + Pictilisib; first compound 2 µM) | relative viability (Lapatinib + Tozasertib; first compound 0.02 µM) | relative viability (Lapatinib + Tozasertib; first compound 0.06325 µM) | relative viability (Lapatinib + Tozasertib; first compound 0.2 µM) | relative viability (Lapatinib + Tozasertib; first compound 0.6325 µM) | relative viability (Lapatinib + Tozasertib; first compound 2 µM) | relative viability (Wnt-C59 + Vorinostat; first compound 0.001 µM) | relative viability (Wnt-C59 + Vorinostat; first compound 0.01 µM) | relative viability (Wnt-C59 + Vorinostat; first compound 0.03162 µM) | relative viability (Wnt-C59 + Vorinostat; first compound 0.1 µM) | relative viability (Wnt-C59 + Lapatinib; first compound 0.001 µM) | relative viability (Wnt-C59 + Lapatinib; first compound 0.01 µM) | relative viability (Wnt-C59 + Lapatinib; first compound 0.03162 µM) | relative viability (Wnt-C59 + Lapatinib; first compound 0.1 µM)
1 | RERF-LC-KJ | 0.472 | 0.907 | 0.595 | 0.438 | 0.325 | 0.525 | 0.425 | 0.436 | 0.413 | 0.337 | 0.746 | 0.671 | 0.825 | 0.715 | 0.892 | 0.836 | 0.925 | 0.797
2 | EMC-BAC-2 | 0.355 | 0.433 | 0.504 | 0.581 | 0.493 | 0.309 | 0.344 | 0.309 | 0.319 | 0.299 | 0.421 | 0.412 | 0.409 | 0.751 | 0.828 | 0.755 | 0.849 | 0.794
3 | NCI-H522 |  |  |  |  |  |  | 0.433 | 0.523 | 0.561 | 0.513 | 0.899 | 0.954 | 0.759 | 0.873 |  |  |  | 
4 | NCI-H1651 | 0.561 | 0.472 | 0.526 | 0.613 | 0.596 | 0.541 | 0.622 | 0.508 | 0.443 | 0.325 | 0.557 | 0.6 | 0.597 | 0.63 | 0.838 | 0.821 | 0.737 | 0.783
5 | IA-LM | 0.227 | 0.297 | 0.223 | 0.21 | 0.222 |  |  |  |  |  | 0.934 | 0.906 |  | 0.939 | 0.876 | 0.768 | 0.47 | 0.674
6 | NCI-H520 | 0.308 | 0.285 | 0.269 | 0.332 | 0.348 | 0.511 | 0.393 | 0.41 | 0.543 | 0.405 | 0.742 | 0.683 | 0.686 | 0.634 | 0.809 | 0.894 | 0.878 | 0.827
7 | NCI-H1793 |  |  |  | 0.368 | 0.318 |  | 0.286 | 0.213 | 0.185 | 0.142 | 0.626 | 0.548 | 0.81 | 0.74 | 0.787 | 0.555 | 0.717 | 0.855
8 | NCI-H647 |  | 0.435 |  | 0.364 | 0.431 | 0.312 | 0.197 | 0.184 | 0.212 | 0.183 | 0.577 | 0.582 | 0.957 | 0.585 | 1.04 | 1.08 | 1.21 | 1.04
9 | HCC-44 | 0.606 | 1.03 | 0.66 | 0.654 | 0.421 |  | 0.622 | 0.81 | 0.762 | 0.725 | 1.16 | 1.02 | 1.13 | 1.12 | 1.01 | 1.03 | 1.01 | 1.03
10 | HCC-827 | 0.947 | 1.13 | 0.891 | 1.02 | 0.574 | 0.41 | 0.418 | 0.414 | 0.412 | 0.144 | 0.901 | 0.922 | 1.01 | 0.77 | 0.188 | 0.163 | 0.191 | 0.203
11 | NCI-H2170 | 0.281 | 0.207 | 0.275 | 0.244 | 0.237 | 0.704 | 0.553 | 0.565 | 0.403 | 0.169 | 0.803 | 0.795 | 0.834 | 0.809 | 0.265 | 0.262 | 0.275 | 0.271
12 | Calu-6 | 0.865 | 0.838 | 0.958 | 1.08 | 0.978 |  |  |  |  |  |  |  |  |  | 1.07 | 1.06 | 1.08 | 0.951
13 | HCC-366 | 0.133 | 0.0868 | 0.131 | 0.135 | 0.0768 |  | 0.0794 | 0.0593 | 0.0794 | 0.0545 | 0.338 | 0.2 | 0.309 | 0.335 | 1.16 | 0.999 | 1.07 | 0.976
14 | NCI-H2405 |  | 0.412 | 0.428 | 0.398 | 0.397 | 0.665 | 0.694 | 0.807 | 0.759 | 0.561 | 1 | 1.05 | 1.15 | 1.17 | 1.02 |  | 0.968 | 0.95
15 | NCI-H1648 |  |  |  |  |  | 0.361 | 0.215 | 0.689 | 0.361 | 0.325 | 0.421 | 0.369 | 0.655 | 0.364 |  |  |  | 
16 | LCLC-97TM1 |  |  | 0.223 | 0.227 | 0.203 |  |  | 0.214 | 0.229 | 0.176 | 0.733 | 0.765 | 0.901 | 0.706 | 1.64 | 0.603 | 1.07 | 0.687
17 | EPLC-272H |  | 0.207 | 0.386 | 0.381 | 0.293 |  |  | 0.21 | 0.2 | 0.239 | 0.394 | 0.561 | 0.512 | 0.396 | 0.837 | 0.959 | 1.19 | 0.954
18 | NCI-H1755 | 0.244 | 0.363 | 0.433 | 0.437 | 0.371 | 0.549 | 0.583 | 0.559 | 0.483 | 0.486 | 0.721 | 0.71 | 0.744 | 0.752 | 1.01 | 0.98 | 1.03 | 0.952
19 | NCI-H1437 | 0.5 | 0.314 | 0.386 | 0.482 | 0.422 | 0.388 | 0.411 | 0.378 | 0.347 | 0.367 | 0.838 | 0.806 | 0.829 | 0.8 | 0.851 | 0.8 | 0.89 | 0.828
20 | PC-3 [JPC-3] |  | 0.687 | 0.621 | 0.769 | 0.512 | 0.876 | 0.83 | 0.909 | 0.803 | 0.506 | 0.781 | 0.917 | 0.785 | 1.13 | 0.465 | 0.459 | 0.447 | 0.496
